Structures can show the parent of a compound that is named as a salt. Where two headings read alike, the source gives them in different places.
Legend:
Format in all cases: cell-based
[1] = system: wild type NL4-3 virus (HIV-1) in HeLa-p4 cells; experiment: HeLa-p4 single-cycle HIV-1 infectivity, beta-galactosidase CPRG test; conditions: for activity at 50 µM: read-out: Hela-p4 CPRG 50 μM; for activity at 100 µM: read-out: Hela-p4 CPRG 100 μM
Description: (§1) HeLa-p4 cells are HeLa CD4 LTR-LacZ wherein LacZ expression is induced by the trans-activating protein Tat of HIV, making possible the precise quantification of HIV-1 infectivity from a single replication cycle. HeLa-CD4 cells growing exponentially at a density of 1×10^4/mL were placed in 96-well plates and infected the following day with 1 ng of HIV p24 antigen in the presence of different concentrations of compounds. The titles for a single cycle of the viruses were determined 48 hours after infection by quantifying the beta-galactosidase activity in lysates P4 by colorimetric test (CPRG, Promega) based on the cleavage of chlorophenol red-beta-D-galactopyranoside (CPRG) by beta-galactosidase. A cell viability assay measuring the absorbance at […] using the yellow tetrazolium reagent MTS [[…]] (Promega) was carried out.
(§2) For the helap4 cells experiments, the efficacy of the compounds is determined in comparison with control cells containing wild type NL4-3 virus alone (i.e. without any added compound) and is expressed as percentage of control. Then, the viral replication was increased for several compounds at the 50 and 100 μM concentrations with an absence of cytotoxic effects at the same concentrations (MTS test) (table 1).

[2] = system: J-Lat cells; experiment: J-Lat cells, percentage of GFP-positive cells by cytometry; conditions: 24 h, compound alone
Description: The J-Lat were grown in RPMI 1640 medium (Gibco-BRL) supplemented with 10% fetal bovine serum, 50 U/ml of penicillin, […] of streptomycin at 37 uC in a humidified 95% air/5% CO2 atmosphere. The cells were plated at 5.105 cells in a 96 well-plate. TNF ? was purchased from Immunosource. SAHA (suberoylanilide hydroxamic acid), prostratin (12-deoxyphorbol-13-acetate) and vorinostat were obtained from Sigma-Aldrich. The J-Lat cells were treated for 24 h with the different compounds alone. The cells were washed twice in PBS, re-suspended in PBS containing 4% paraformaldehyde and fixed for 30 min. Cells were next washed and re-suspended in PBS. The percentage of GFP-positive cells was measured with a LSRFortessa cytometer (Becton-Dickinson) using FACSDiva Version 6.1.3 according to the manufacturer's instructions.
The results for the J-Lat cells experiments are expressed as a percentage of the living fluorescent cells. In this model, some slight increase of viral production measured by fluorescence are quantified (table 1).

[3] = system: HeLa-p4 cells; experiment: Cell viability assay (MTS) on HeLa-p4 cells
Description: as §1, §2

[4] = Human immunodeficiency virus 1, NL43, HeLaP4, 50 μM, 48 hours after infection, control = NL4-3 virus alone
[5] = Human immunodeficiency virus 1, NL43, HeLaP4, 100 μM, 48 hours after infection, control = NL4-3 virus alone
[6] = Human immunodeficiency virus 1, NL43, HeLaP4, 48 hours after infection, control = NL4-3 virus alone
[7] = Human immunodeficiency virus 1, NL43, HeLaP4, 48 h

Compound	activity at 50 µM [1, 4] [%]	activity at 100 µM [1, 5] [%]	J-lat 50 μM [2]	J-lat 100 μM [2]	Hela-p4 MTS 50 μM ([3]; 50 μM, cell viability)	Hela-p4 MTS 100 μM ([3]; 100 μM, cell viability)	activity at 200 µM [1, 6] [%]	Hela-p4 MTS 200 μM ([3]; cell viability)	activity at 50 µM [1, 7] [%]	activity at 100 µM [1, 7] [%]	Hela-p4 CPRG 50 μM ([1]; 50 μM, 48 hours after infection, control = NL4-3 virus alone)	Hela-p4 CPRG 100 μM ([1]; 100 μM, 48 hours after infection, control = NL4-3 virus alone)	Hela-p4 MTS 50 μM [3]	Hela-p4 MTS 100 μM [3]
COc1ccc(N2C[C@H](N)C[C@H](N)C2)cc1 [ECO01-056-C, 1-(4-methoxyphenyl)piperidine-3,5-diamine]	94	122	0.1 percentage of the living fluorescent cells	0.2 percentage of the living fluorescent cells	68	81								
N[C@@H]1C[C@H](N)CN(CCCc2ccccc2)C1 [ECO01-035-C, 1-(3-phenylpropyl)piperidine-3,5-diamine]	169	147	1.5 percentage of the living fluorescent cells	2.8 percentage of the living fluorescent cells	105	88								
COc1cc(CN2C[C@H](N)C[C@H](N)C2)cc(OC)c1 [ECO02-064-C, 1-(3,5-dimethoxybenzyl)piperidine-3,5-diamine]	109	133	2.4 percentage of the living fluorescent cells		115	107								
COC(=O)N[C@@H]1C[C@H](NC(=O)OC)CN(CCc2cccc(OC)c2)C1 [ECO02-074-C, dimethyl (1-(3-methoxyphenethyl)piperidine-3,5-diyl)dicarbamate]	139	186	0.4 percentage of the living fluorescent cells		101	91	326	70						
COc1cccc(CCN2C[C@H](NS(C)(=O)=O)C[C@H](NS(C)(=O)=O)C2)c1 [ECO02-073-B2, N,N′-(1-(3-methoxyphenethyl)piperidine-3,5-diyl)dimethanesulfonamide]	103	127	0.6 percentage of the living fluorescent cells		96	94	253	69						
N[C@@H]1C[C@H](N)CN(c2ccccc2)C1 [ECO01-037-C, 1-phenylpiperidine-3,5-diamine]	103	103	0.6 percentage of the living fluorescent cells	0.2 percentage of the living fluorescent cells	97	106								
CN(C)c1ccc(CN2C[C@H](N)C[C@H](N)C2)cc1 [ECO02-069-B, 1-(4-(dimethylamino)benzyl)piperidine-3,5-diamine]			1.3 percentage of the living fluorescent cells		99	94			86	88				
N[C@@H]1C[C@H](N)CN(CCc2ccc3c(c2)OCO3)C1 [ECO01-033-C, 1-(2-(benzo[d][1,3]dioxol-5-yl)ethyl)piperidine-3,5-diamine]	103	146	0.1 percentage of the living fluorescent cells	0.2 percentage of the living fluorescent cells	97	94								
COc1ccc(CC(=O)N2C[C@H](N)C[C@H](N)C2)cc1OC [AB287-F1, 1-((3S,5R)-3,5-diaminopiperidin-1-yl)-2-(3,4-dimethoxyphenyl)ethanone]	137	182	0.1 percentage of the living fluorescent cells	0.4 percentage of the living fluorescent cells	103	92								
CC(C)(C)OC(=O)N[C@@H]1C[C@H](NC(=O)OC(C)(C)C)CN(Cc2ccccc2)C1 [ECO02-056-C, di-tert-butyl (1-benzylpiperidine-3,5-diyl)dicarbamate]	100	79	1.6 percentage of the living fluorescent cells		67	38								
Cc1ccc(CCN2C[C@H](N)C[C@H](N)C2)cc1 [ECO01-029-C, 1-(4-methylphenethyl)piperidine-3,5-diamine]	126	109	0.1 percentage of the living fluorescent cells	15.8 percentage of the living fluorescent cells	94	89								
Cc1cccc(CCN2C[C@H](N)C[C@H](N)C2)c1 [ECO01-030-C, 1-(3-methylphenethyl)piperidine-3,5-diamine]	125	103	0.1 percentage of the living fluorescent cells	0 percentage of the living fluorescent cells	84	82								
N[C@@H]1C[C@H](N)CN(CCc2ccccc2)C1 [ECO02-027-C, 1-phenethylpiperidine-3,5-diamine]	75	52	8.7 percentage of the living fluorescent cells	2.3 percentage of the living fluorescent cells	100	45								
N[C@@H]1C[C@H](N)CN(CCc2ccc(O)cc2)C1 [ECO02-028-C, 4-(2-(3,5-diaminopiperidin-1-yl)ethyl)phenol]	107	89	0.3 percentage of the living fluorescent cells	0.2 percentage of the living fluorescent cells	100	83								
N[C@@H]1C[C@H](N)CN(Cc2cccc3cnccc23)C1 [ECO02-068-C, 1-(isoquinolin-5-ylmethyl)piperidine-3,5-diamine trihydrochloride]	105	137	0.4 percentage of the living fluorescent cells		85	83								
1-(3,5-diaminopiperidin-1-yl)-2-(3-methoxyphenyl)ethanone [ECO02-030-C]			0.5 percentage of the living fluorescent cells	0.1 percentage of the living fluorescent cells							139 percentage of control	166 percentage of control	109	107
COc1cccc(CCN2C[C@H](NC(C)=O)C[C@H](NC(C)=O)C2)c1 [ECO02-072-C, N,N′-(1-(3-methoxyphenethyl)piperidine-3,5-diyl)diacetamide]	107	167	2.1 percentage of the living fluorescent cells		111	98	242	84						
N[C@@H]1C[C@H](N)CN(c2ccc(NC(=O)c3ccccc3)c(O)c2)C1 [AB-120, N-(4-((3S,5R)-3,5-diaminopiperidin-1-yl)-2-hydroxyphenyl)benzamide]	144	230	0.1 percentage of the living fluorescent cells	12.3 percentage of the living fluorescent cells	94	90	215	55						
COc1cccc(CCN2C[C@@H](N)C[C@@H](NC(=O)OC(C)(C)C)C2)c1 [ECO02-078-C]	251	390	0.8 percentage of the living fluorescent cells		105	103	145	25						

— patent US20170183306A1, “CYCLIC COMPOUNDS HAVING A 1,3 DIAMINO-FUNCTIONALITY FOR USE IN THE TREATMENT OF HIV INFECTION” (Universite Paris Descartes, priority 2014, published 2017)
